This is an account of results in paper PMC7022718, “Composition and Insecticidal Activity of Essential Oil of Bacopa caroliniana and Interactive Effects of Individual Compounds on the Activity” (Insects, 2019).

For the test, the system named is T1, acetylcholine esterase (AChE), crude, from rice weevil.
T1 construct: gene ace1; native, unpurified; supernatant of whole adult homogenate in phosphate buffer pH 7.4 (8775 g, 20 min)
The test is described as follows: Ellman colorimetric assay, […] nm. It counts as biochemical, Sitophilus oryzae. Particulars: crude enzyme; acetylthiocholine iodide 2.5 mM, pH 7.4, 35 °C, 15 min preincubation, compound in ethanol. For orientation: DTNB colorimetry detects thiols as they appear.

For the compound `CC12CCC(CC1)C(C)(C)O2` [1,8-Cineole], the “AChE-IC50 (μL mL^-1)” value worked out at 31.13 ± 2.20 µL mL^−1.

As for `C=CC(O)CCCCC` (stereo not drawn) [1-Octen-3-ol], the “AChE-IC50 (μL mL^-1)” value turned out to be 14.82 ± 0.12 µL mL^−1.

Turning to `CC1=CCC(O)(C(C)C)CC1` (stereo not drawn) [4-Terpineol], the “AChE-IC50 (μL mL^-1)” value amounted to 11.29 ± 0.02 µL mL^−1.

As for `C=C1CC[C@H]2O[C@]2(C)CC[C@@H]2[C@@H]1CC2(C)C` [Caryophyllene oxide], the “AChE-IC50 (μL mL^-1)” value was over 500 µL mL^−1.

Turning to `CC(C)=CCCC(C)CCO` (stereo not drawn) [Citronellol], the “AChE-IC50 (μL mL^-1)” value is given as 86.08 ± 1.09 µL mL^−1.

Consider `C=C(C)C1CC=C(C)CC1` (stereo not drawn) [Limonene], for which the “AChE-IC50 (μL mL^-1)” value came out at 9.57 ± 1.37 µL mL^−1.

As to `C=CC(C)(O)CCC=C(C)C` (stereo not drawn) [Linalool], the “AChE-IC50 (μL mL^-1)” value is given as 44.33 ± 1.31 µL mL^−1.

Turning to `C=CC(C)(O)CCC=C(C)CCC=C(C)C` (stereo not drawn) [Nerolidol], the “AChE-IC50 (μL mL^-1)” value is 331.24±21.55 µL mL^−1.

On to `C=C1CCC2(C(C)C)CC12` (stereo not drawn) [Sabinene], for which the “AChE-IC50 (μL mL^-1)” value amounted to 85.03 ± 0.20 µL mL^−1.

For the compound `Cc1ccc(C(C)C)cc1` [p-Cymene], the “AChE-IC50 (μL mL^-1)” value is recorded as over 500 µL mL^−1.

As for `CC1=CCC2CC1C2(C)C` (stereo not drawn) [α-Pinene], the “AChE-IC50 (μL mL^-1)” value is recorded as 1.81 ± 0.20 µL mL^−1.

Turning to `CC1=CC=C(C(C)C)CC1` [α-Terpinene], the “AChE-IC50 (μL mL^-1)” value is on record as over 500 µL mL^−1.

Take `CC1=CCC(C(C)(C)O)CC1` (stereo not drawn) [α-Terpineol]: the “AChE-IC50 (μL mL^-1)” value amounted to 18.39 ± 1.52 µL mL^−1.

Turning to `CC1=CCC(=C(C)C)CC1` [α-Terpinolene], the “AChE-IC50 (μL mL^-1)” value is listed as 1.10 ± 0.17 µL mL^−1.

As for `C=C1CC/C=C(\C)CC[C@@H]2[C@@H]1CC2(C)C` [β-Caryophyllene], the “AChE-IC50 (μL mL^-1)” value was over 500 µL mL^−1.

As to `C=CC(=C)CCC=C(C)C` [β-Myrcene], the “AChE-IC50 (μL mL^-1)” value is recorded as over 500 µL mL^−1.

Regarding `C=C1CCC2CC1C2(C)C` (stereo not drawn) [β-Pinene], the “AChE-IC50 (μL mL^-1)” value was over 500 µL mL^−1.

As for `CC1=CCC(C(C)C)=CC1` [γ-Terpinene], the “AChE-IC50 (μL mL^-1)” value is on record as over 500 µL mL^−1.
